Assay results published in US11339165B2, “Pyrazolopyrimidines having activity against the respiratory syncytial virus (RSV)” (priority 2017, dated 2022).

Columns and labels:
in vitro = settings: human, TOX HELA CC50 (μM)
rgRSV224 virus = assay: Antiviral activity: rgRSV224 (GFP) replication in HeLa cells; assay type: cell-based, respiratory syncytial virus (RSV); settings: human respiratory syncytial virus, HeLa, 72 h, read-out: RSV HELA EC50 (μM), rgRSV224 virus (MOI=1), HeLa cells, GFP expression three days post-virus exposure

| Compound | CC50 at 3 days (in vitro) | EC50 (rgRSV224 virus) |
| --- | --- | --- |
| CNC(=O)O[C@H]1CCN(c2ccc(-c3cc4nc(C(=O)N5CCc6ccccc6[C@H]5C)cc(C5CC5)n4n3)c(F)c2)C1 [Compound 16, (3S)-1-(4-{7-Cyclopropyl-5-[(1R)-1-methyl-1,2,3,4-tetrahydroisoquinoline-2-carbonyl]-pyrazolo[1,5-a]pyrimidin-2-yl}-3-fluorophenyl)pyrrolidin-3-yl N-methylcarbamate] | > 100 µM | 0.11 µM |
| C[C@@H]1c2ccccc2CCN1C(=O)c1cc(-c2ccc(C(F)(F)F)cc2)n2nc(-c3ccc(N4CC[C@H](C(N)=O)C4)cc3F)cc2n1 [Compound 61, (3S)-1-(3-Fluoro-4-{5-[(1R)-1-methyl-1,2,3,4-tetrahydroisoquinoline-2-carbonyl]-7-[4-(trifluoromethyl)phenyl]pyrazolo[1,5-a]pyrimidin-2-yl}phenyl)pyrrolidine-3-carboxamide] | > 100 µM | 0.193 µM |
| C[C@@H]1c2ccccc2CCN1C(=O)c1cc(C2CC2)n2nc(-c3ccc(N4CC[C@H](c5noc(=O)[nH]5)C4)cc3F)cc2n1 [Compound 4, 3-[(3S)-1-(4-{7-Cyclopropyl-5-[(1R)-1-methyl-1,2,3,4-tetrahydroisoquinoline-2-carbonyl]pyrazolo[1,5-a]pyrimidin-2-yl}-3-fluorophenyl)pyrrolidin-3-yl]-4,5-dihydro-1,2,4-oxadiazol-5-one] | 23 µM | 0.049 µM |
| CC(=O)NS(=O)(=O)C1CCN(c2ccc(-c3cc4nc(C(=O)N5CCc6ccccc6[C@H]5C)cc(C5CC5)n4n3)c(F)c2)C1 (stereo partly drawn) [Compound 20, N-{[1-(4-{7-Cyclopropyl-5-[(1R)-1-methyl-1,2,3,4-tetrahydroisoquinoline-2-carbonyl]-pyrazolo[1,5-a]pyrimidin-2-yl}-3-fluorophenyl)pyrrolidin-3-yl]sulfonyl}acetamide] | 55.9 µM | 0.052 µM |
| C[C@@H]1c2ccccc2CCN1C(=O)c1cc(C2CC2)n2nc(-c3ccc(N4CC[C@H](c5nnn[nH]5)C4)cc3F)cc2n1 [Compound 3, (1R)-2-(7-Cyclopropyl-2-{2-fluoro-4-[(3S)-3-(1H-1,2,3,4-tetrazol-5-yl)pyrrolidin-1-yl]phenyl}pyrazolo[1,5-a]pyrimidine-5-carbonyl)-1-methyl-1,2,3,4-tetrahydroisoquinoline] | 43 µM | 0.063 µM |
| C[C@@H]1c2ccccc2CCN1C(=O)c1cc(C2CC2)n2nc(-c3c(O)cc(N4CC[C@H](C(N)=O)C4)cc3F)cc2n1 [Compound 105, (S)-1-(4-(7-cyclopropyl-5-((R)-1-methyl-1,2,3,4-tetrahydroisoquinoline-2-carbonyl)pyrazolo[1,5-a]pyrimidin-2-yl)-3-fluoro-5-hydroxyphenyl)pyrrolidine-3-carboxamide] | 83.6 µM | 0.025 µM |
| C[C@@H]1c2ccccc2CCN1C(=O)c1cc(C2CC2)n2nc(-c3ccc(N4C[C@H](O)C(F)(F)C4)cc3F)cc2n1 [Compound 97, (7-cyclopropyl-2-(4-((S)-3,3-difluoro-4-hydroxypyrrolidin-1-yl)-2-fluorophenyl)pyrazolo[1,5-a]pyrimidin-5-yl)((R)-1-methyl-3,4-dihydroisoquinolin-2(1H)-yl)methanone] | 26.1 µM | 0.053 µM |
| C[C@@H]1c2ccccc2CCN1C(=O)c1cc(C2CC2)n2nc(-c3ccc(N4CCC(S(=O)(=O)N(C)C)C4)cc3F)cc2n1 (stereo partly drawn) [Compound 22, 1-(4-{7-Cyclopropyl-5-[(1R)-1-methyl-1,2,3,4-tetrahydroisoquinoline-2-carbonyl]-pyrazolo[1,5-a]pyrimidin-2-yl}-3-fluorophenyl)-N,N-dimethylpyrrolidine-3-sulfonamide] | > 100 µM | 0.145 µM |
| C[C@@H]1c2ccccc2CCN1C(=O)c1cc(C2CC2)n2nc(-c3ccc(N4C[C@@H](O)[C@@H](O)C4)cc3F)cc2n1 [Compound 95, (7-cyclopropyl-2-(4-((3R,4S)-3,4-dihydroxypyrrolidin-1-yl)-2-fluorophenyl)pyrazolo[1,5-a]pyrimidin-5-yl)((R)-1-methyl-3,4-dihydroisoquinolin-2(1H)-yl)methanone] | 31.1 µM | 0.018 µM |
| C[C@@H]1c2ccccc2CCN1C(=O)c1cc(C2CC2)n2nc(-c3ccc(N4CCCC(C(N)=O)C4)cc3F)cc2n1 (stereo partly drawn) [Compound 69, 1-(4-{7-Cyclopropyl-5-[(1R)-1-methyl-1,2,3,4-tetrahydroisoquinoline-2-carbonyl]-pyrazolo[1,5-a]pyrimidin-2-yl}-3-fluorophenyl)piperidine-3-carboxamide] | 33.2 µM | 0.059 µM |
| COC(=O)N[C@H]1CCN(c2ccc(-c3cc4nc(C(=O)N5CCc6ccccc6[C@H]5C)cc(C5CC5)n4n3)c(F)c2)C1 [Compound 10, Methyl N-[(3S)-1-[4-{7-cyclopropyl-5-[(1R)-1-methyl-1,2,3,4-tetrahydroisoquinoline-2-carbonyl]pyrazolo[1,5-a]pyrimidin-2-yl}-3-fluorophenyl)pyrrolidin-3-yl]carbamate] | > 100 µM | 0.07 µM |
| C[C@@H]1c2ccsc2CCN1C(=O)c1cc(C2CC2)n2nc(-c3ccc(N4CC[C@@](C)(C(N)=O)C4)cc3F)cc2n1 (single isomer, unassigned) [Compound 44, (3*R)-1-(4-{7-Cyclopropyl-5-[(4*R)-4-methyl-4,5,6,7-tetrahydro-thieno[3,2-c]pyridine-5-carbonyl]pyrazolo[1,5-a]pyrimidin-2-yl}-3-fluorophenyl)-3-methylpyrrolidine-3-carboxamide] | 45.2 µM | 0.019 µM |
| CNC(=O)O[C@@H]1CCN(c2ccc(-c3cc4nc(C(=O)N5CCc6ccccc6[C@H]5C)cc(C5CC5)n4n3)c(F)c2)C1 [Compound 15, (3R)-1-(4-{7-Cyclopropyl-5-[(1R)-1-methyl-1,2,3,4-tetrahydroisoquinoline-2-carbonyl]-pyrazolo[1,5-a]pyrimidin-2-yl}-3-fluorophenyl)pyrrolidin-3-yl N-methylcarbamate] | > 100 µM | 0.1 µM |
| CC(=O)N[C@H]1CCN(c2ccc(-c3cc4nc(C(=O)N5CCc6ccccc6[C@H]5C)cc(C5CC5)n4n3)c(F)c2)C1 [Compound 8, N-[(3S)-1-(4-{7-Cyclopropyl-5-[(1R)-1-methyl-1,2,3,4-tetrahydroisoquinoline-2-carbonyl]pyrazolo[1,5-a]pyrimidin-2-yl}-3-fluorophenyl)pyrrolidin-3-yl]acetamide] | 51.5 µM | 0.041 µM |
| C[C@@H]1c2ccccc2CCN1C(=O)c1cc(C2CC2)n2nc(-c3ccc(N4CC[C@@H](C(C)(C)C(N)=O)C4)cc3F)cc2n1 (single isomer, unassigned) [Compound 28, 2-[(3*S)-1-(4-{7-Cyclopropyl-5-[(1R)-1-methyl-1,2,3,4-tetrahydroisoquinoline-2-carbonyl]pyrazolo[1,5-a]pyrimidin-2-yl}-3-fluorophenyl)pyrrolidin-3-yl]-2-methylpropanamide] | 32.2 µM | 0.072 µM |
| C[C@@H]1c2ccccc2CCN1C(=O)c1cc(C2CC2)n2nc(-c3ccc(N4CCC(C(N)=O)CC4)cc3F)cc2n1 [Compound 68, 1-(4-{7-Cyclopropyl-5-[(1R)-1-methyl-1,2,3,4-tetrahydroisoquinoline-2-carbonyl]-pyrazolo[1,5-a]pyrimidin-2-yl}-3-fluorophenyl)piperidine-4-carboxamide] | 26.6 µM | 0.058 µM |
